Values after ≈ are worked out from the molar mass of the structure shown. Ends that are not written are not given here. Peptide text beside a SMILES is read from it. * marks the point of attachment. Acm = CC(=O)NC*
What was measured:
Assay type in all cases: cell-based
human red blood cells = experiment: Hemolytic assay; set-up: % Hemolysis: dose or concentration left out as unconfirmed
Procedure: The hemolytic activities of the peptides were determined using fresh human red blood cells. 8 ml blood was taken from a healthy person. 4 ml blood was transferred to a polycarbonate tube containing heparin to a final concentration of 10 U/ml, and the remaining 4 ml blood was transferred to a glass tube containing EDTA with final concentration of 15% EDTA. The erythrocytes were isolated from heparin-treated blood by centrifugation in 1500 rpm for 10 min and washed three times with phosphate-buffered saline (PBS) to remove plasma and buffy coat. The cell pellet was resuspended in PBS to make the final volume of 4 ml. The peptide was diluted to a concentration of 2 mg/ml and 0.1 mg/ml. The peptide was further diluted to the concentrations as stated in Table 1. For each tube PBS was added first, then RBCs and peptide solutions. The hematocrit in the blood treated with EDTA was determined after 30 min with Sysmex K-1000, and the resuspended RBCs were diluted into 10% hematocrit. RBCs in PBS (1%) with and without peptides (Table 18) were incubated in a shaker at 37° for 1 hour and then centrifuged at 4000 rpm for 5 min. The supernatant were carefully transferred to new polycarbonate tubes and the absorbance of the supernatant was measured at 540 nm. Baseline hemolysis was hemoglobin released in the presence of PBS, and 100% hemolysis was hemoglobin released in the presence of 0.1% Triton X-100.

[1] = test system: Escherichia coli ATCC 25922; experiment: MIC (minimum inhibitory concentration) test, microdilution; details: for Mic E-coli: Table 19
Procedure: (§1) The bacterial strains used were: Escherichia coli ATCC 25922 and Staphylococcus aureus ATCC 25923. All strains were stored at −70° C. The bacteria were grown in 2% Bacto Peptone water (Difco 1807-17-4). All tests were performed with bacteria in mid-logarithmic growth phase. Determination of the minimum inhibitory concentration (MIC) of the peptides for bacterial strains were performed in 1% Bacto Peptone water. A standard microdilution technique with an inoculum of 2×10^6 CFU/ml was used. All assays were performed in triplets. Since the peptides are positively charged and therefore could adhere to the plastic wells, we controlled the actual concentration of the peptides in the solution by HPLC. There was no difference between the concentration of the peptides before or after adding the solution to the plastic wells.

[2] = test system: Staphylococcus aureus ATCC 25923; experiment: as above
Procedure: as §1

CSCC[C@@H](NC(=O)[C@@H](CCCNC(=N)N)NC(=O)[C@@H](Cc1c[nH]c2ccccc12)NC(=O)[C@@H](CCC(N)=O)NC(=O)[C@@H](Cc1c[nH]c2ccccc12)NC(=O)[C@@H](CCCNC(=N)N)NC(=O)[C@@H](CCCNC(=N)N)NC(=O)[C@@H](CSCNC(C)=O)NC(=O)[C@@H](CCCCN)NC(=O)[C@H](N)Cc1ccccc1)C(=O)N[C@H](CCCCN)C(=O)N[C@H](CCCCN)C(=O)N[C@H](CC(C)C)C(=O)NCC(=O)N[C@H](C)C(=O)O [Enantio LFB 17-31]
% Hemolysis (human red blood cells): 3.05%

CSCC[C@H](NC(=O)[C@H](CCCNC(=N)N)NC(=O)[C@H](Cc1c[nH]c2ccccc12)NC(=O)[C@H](CCC(N)=O)NC(=O)[C@H](Cc1c[nH]c2ccccc12)NC(=O)[C@H](CCCNC(=N)N)NC(=O)[C@H](CCCNC(=N)N)NC(=O)[C@H](CSCNC(C)=O)NC(=O)[C@@H](N)CCCCN)C(=O)N[C@@H](CCCCN)C(=O)N[C@@H](CCCCN)C(=O)N[C@@H](CC(C)C)C(=O)NCC(=O)N[C@@H](C)C(=O)O [LFB 18-31] (H-KC(Acm)RRWQWRMKKLGA-OH; N-terminus and C-terminus assumed)
MIC E. coli ([1]; ATCC 25922): 80 µg/mL
Minimum inhibitory concentration (MIC) E. coli ATCC 25922 ([1]; Table 1, value in parentheses): 43 µM
MIC S. aureus ([2]; ATCC 25923): 200 µg/mL (≈ 104 µM)
Minimum inhibitory concentration (MIC) S. aureus ATCC 25923 ([2]; Table 1, value in parentheses): 108 µM

CSCC[C@H](NC(=O)[C@H](CCCNC(=N)N)NC(=O)[C@H](Cc1c[nH]c2ccccc12)NC(=O)[C@H](CCC(N)=O)NC(=O)[C@H](Cc1c[nH]c2ccccc12)NC(=O)[C@H](CCCNC(=N)N)NC(=O)[C@H](CCCNC(=N)N)NC(=O)[C@@H](N)CSCNC(C)=O)C(=O)N[C@@H](CCCCN)C(=O)N[C@@H](CCCCN)C(=O)N[C@@H](CC(C)C)C(=O)NCC(=O)N[C@@H](C)C(=O)O [LFB 19-31] (H-C(Acm)RRWQWRMKKLGA-OH; N-terminus and C-terminus assumed)
Minimum inhibitory concentration (MIC) E. coli ATCC 25922 ([1]; Table 1, value in parentheses): 120 µM
Minimum inhibitory concentration (MIC) S. aureus ATCC 25923 ([2]; Table 1, value in parentheses): > 150 µM

CSCC[C@H](NC(=O)[C@H](CCCNC(=N)N)NC(=O)[C@H](Cc1c[nH]c2ccccc12)NC(=O)[C@H](CCC(N)=O)NC(=O)[C@H](Cc1c[nH]c2ccccc12)NC(=O)[C@H](CCCNC(=N)N)NC(=O)[C@H](Cc1ccccc1)NC(=O)[C@H](CSCNC(C)=O)NC(=O)[C@H](CCCCN)NC(=O)[C@@H](N)CCCCN)C(=O)N[C@@H](CCCCN)C(=O)N[C@@H](CCCCN)C(=O)N[C@@H](CC(C)C)C(=O)NCC(=O)N[C@@H](C)C(=O)O [LFB F4K1] (H-KKC(Acm)FRWQWRMKKLGA-OH; N-terminus assumed)
MIC E. coli ([1]; ATCC 25922): 20 µg/mL
Minimum inhibitory concentration (MIC) E. coli ATCC 25922 ([1]; Table 1, value in parentheses): 10 µM
MIC S. aureus ([2]; ATCC 25923): 200 µg/mL (≈ 98.2 µM)
Minimum inhibitory concentration (MIC) S. aureus ATCC 25923 ([2]; Table 1, value in parentheses): 100 µM

CSCC[C@H](NC(=O)[C@H](CCCNC(=N)N)NC(=O)[C@H](Cc1c[nH]c2ccccc12)NC(=O)[C@H](CCC(N)=O)NC(=O)[C@H](Cc1c[nH]c2ccccc12)NC(=O)[C@H](CCCNC(=N)N)NC(=O)[C@H](Cc1ccccc1)NC(=O)[C@H](CSCNC(C)=O)NC(=O)[C@H](CCCCN)NC(=O)[C@@H](N)Cc1ccccc1)C(=O)N[C@@H](CCCCN)C(=O)N[C@@H](CCCCN)C(=O)N[C@@H](CC(C)C)C(=O)NCC(=O)N[C@@H](C)C(=O)O [LFB F4] (H-FKC(Acm)FRWQWRMKKLGA-OH; N-terminus and C-terminus assumed)
MIC E. coli ([1]; ATCC 25922): 20 µg/mL
Minimum inhibitory concentration (MIC) E. coli ATCC 25922 ([1]; Table 1, value in parentheses): 10 µM
MIC S. aureus ([2]; ATCC 25923): 200 µg/mL (≈ 97.3 µM)
Minimum inhibitory concentration (MIC) S. aureus ATCC 25923 ([2]; Table 1, value in parentheses): 100 µM

CSCC[C@H](NC(=O)[C@H](CCCNC(=N)N)NC(=O)[C@H](Cc1c[nH]c2ccccc12)NC(=O)[C@H](CCC(N)=O)NC(=O)[C@H](Cc1c[nH]c2ccccc12)NC(=O)[C@H](CCCNC(=N)N)NC(=O)[C@H](CCCNC(=N)N)NC(=O)[C@H](CSCNC(C)=O)NC(=O)[C@H](CCCCN)NC(=O)[C@@H](N)CCCCN)C(=O)N[C@@H](CCCCN)C(=O)N[C@@H](CCCCN)C(=O)N[C@@H](CC(C)C)C(=O)NCC(=O)N[C@@H](C)C(=O)O [LFB K1] (H-KKC(Acm)RRWQWRMKKLGA-OH; N-terminus assumed)
MIC E. coli ([1]; ATCC 25922): 60 µg/mL
Minimum inhibitory concentration (MIC) E. coli ATCC 25922 ([1]; Table 1, value in parentheses): 30 µM
MIC S. aureus ([2]; ATCC 25923): 100 µg/mL (≈ 48.9 µM)
Minimum inhibitory concentration (MIC) S. aureus ATCC 25923 ([2]; Table 1, value in parentheses): 50 µM

CC[C@H](C)[C@H](NC(=O)[C@H](CO)NC(=O)[C@@H]1CCCN1C(=O)[C@H](C)NC(=O)CNC(=O)[C@H](CC(C)C)NC(=O)[C@H](CCCCN)NC(=O)[C@H](CCCNC(=N)N)NC(=O)[C@H](CCSC)NC(=O)[C@H](CCCNC(=N)N)NC(=O)[C@H](CCCNC(=N)N)NC(=O)[C@H](CCC(N)=O)NC(=O)[C@H](Cc1c[nH]c2ccccc12)NC(=O)[C@H](CCC(N)=O)NC(=O)[C@H](Cc1ccc(O)cc1)NC(=O)[C@H](CSCNC(C)=O)NC(=O)[C@H](CCCCN)NC(=O)[C@@H](N)CO)C(=O)N[C@H](C(=O)N[C@@H](CSCNC(C)=O)C(=O)N[C@H](C(=O)N[C@@H](CCCNC(=N)N)C(=O)N[C@@H](CCCNC(=N)N)C(=O)N[C@H](C(=O)N[C@@H](CO)C(=O)O)[C@@H](C)O)C(C)C)[C@@H](C)O [LFC (17-41)] (H-SKC(Acm)YQWQRRMRKLGAPSITC(Acm)VRRTS-OH)
Minimum inhibitory concentration (MIC) E. coli ATCC 25922 ([1]; ATCC 25922): 750 µg/mL
Minimum inhibitory concentration (MIC) S. aureus ATCC 25923 ([2]; ATCC 25923): 1000 µg/mL

CSCC[C@H](NC(=O)[C@H](CCCCN)NC(=O)[C@H](CCCCN)NC(=O)[C@H](CC(C)C)NC(=O)CNC(=O)[C@H](C)N)C(=O)N[C@@H](CCCNC(=N)N)C(=O)N[C@@H](Cc1c[nH]c2ccccc12)C(=O)N[C@@H](CCC(N)=O)C(=O)N[C@@H](Cc1c[nH]c2ccccc12)C(=O)N[C@@H](CCCNC(=N)N)C(=O)N[C@@H](CCCNC(=N)N)C(=O)N[C@@H](CSCNC(C)=O)C(=O)N[C@@H](CCCCN)C(=O)N[C@@H](Cc1ccccc1)C(=O)O [Retro LFB 17-31]
% Hemolysis (human red blood cells): 2.01%

CSCC[C@@H](NC(=O)[C@@H](CCCCN)NC(=O)[C@@H](CCCCN)NC(=O)[C@@H](CC(C)C)NC(=O)CNC(=O)[C@@H](C)N)C(=O)N[C@H](CCCNC(=N)N)C(=O)N[C@H](Cc1c[nH]c2ccccc12)C(=O)N[C@H](CCC(N)=O)C(=O)N[C@H](Cc1c[nH]c2ccccc12)C(=O)N[C@H](CCCNC(=N)N)C(=O)N[C@H](CCCNC(=N)N)C(=O)N[C@H](CSCNC(C)=O)C(=O)N[C@H](CCCCN)C(=O)N[C@H](Cc1ccccc1)C(=O)O [Retro-Enantio LFB 17-31]
% Hemolysis (human red blood cells): 3.31%

FKARRWAWRMKKLGA-OH [LFB A3, 7]
EC 50 (toxicity, hemolysis) (human red blood cells; red cells of human): >1000 µg/mL

GIGKFLKKARKFGRAWVRILKKG [Tosmag W16]
MIC E. coli ([1]; ATCC 25922): 10 µg/mL
MIC S. aureus ([2]; ATCC 25923): 5 µg/mL

GIGKFLKKARKWGRAWVRILKKG [Tosmag W12,16]
MIC E. coli ([1]; ATCC 25922): 5 µg/mL
MIC S. aureus ([2]; ATCC 25923): 10 µg/mL

GIGKFWHWAKKFGKAFVGEIMNS [Mag 2 W 6,8]
MIC E. coli ([1]; ATCC 25922): >100 µg/mL
MIC S. aureus ([2]; ATCC 25923): >100 µg/mL

PAIRKAFRWAWRMLKKAA [LFB 14-31A2,6,10,17F7I3K16L14R4]
Mic E-coli [1]: 2/4
Mic S. Aureus ([2]; Table 19): 2/4

PAWRKAFRWAIRMLKKAA [LFB 14-31A2,6,10,17F7I11K16L14R4]
Mic E-coli [1]: 2/5

PAWRKAFRWAWRMKKLAA-OH [LFB 14-31 A2,6,10,17F7R4]
EC50 (human red blood cells; red cells of human): > 440 µM
EC 50 (toxicity, hemolysis) (human red blood cells; red cells of human): >1000 µg/mL
MIC E. coli ([1]; ATCC 25922): 4.4 µM
MIC E. coli ([1]; Table 8): 10 µg/mL
MIC E. coli ([1]; Table 15): 10.0 µg/mL

PAWRKAFRWAWRMLKKAA-OH [LFB 14-31 A2,6,10,17 F7K16L14R4]
Mic E-coli [1]: 2/4

PAWRKARRWARRMKKLAA-OH [LFB 14-31 A2,6,10,17R4,11]
EC 50 (toxicity, hemolysis) (human red blood cells; red cells of human): >1000 µg/mL

RRWQWRMKKLGA-OH [LFB 20-31]
MIC E. coli ([1]; ATCC 25922): 100 µg/mL
Minimum inhibitory concentration (MIC) E. coli ATCC 25922 ([1]; Table 1, value in parentheses): 62 µM
MIC S. aureus ([2]; ATCC 25923): 200 µg/mL
Minimum inhibitory concentration (MIC) S. aureus ATCC 25923 ([2]; Table 1, value in parentheses): 124 µM

YRAWRWAWRWR-NH2 [LFM 17-27 A7R2,8,9W3,4,10Y1 NH2, TYR-ARG-ALA-TRP-ARG-TRP-ALA-TRP-ARG-TRP-ARG-CONH2]
MIC E. coli ([1]; ATCC 25922): 10 µg/mL
MIC S. aureus ([2]; ATCC 25923): 2.5 µg/mL

YRMWRWAWRWR-NH2 [LFB 17-27 A7 M3 R2,11 W4,10 Y1 NH2]
MIC E. coli ([1]; ATCC 25922): 5.7 µM
MIC E. coli ([1]; Table 15): 10.0 µg/mL
